Reference: patent US8431593B2, “Heteroaryl amide derivatives” (H. Lundbeck A/S, priority 2006, dated 2013)

target: T1, P2X7 receptor (Homo sapiens, UniProt Q99572); assay: P2X7 calcium mobilization assay, high throughput, antagonist activity (Example 4A); format: cell-based; details: not given
T1 construct: host or cells: SH-SY5Y
T1 sequence (Q99572 1-595): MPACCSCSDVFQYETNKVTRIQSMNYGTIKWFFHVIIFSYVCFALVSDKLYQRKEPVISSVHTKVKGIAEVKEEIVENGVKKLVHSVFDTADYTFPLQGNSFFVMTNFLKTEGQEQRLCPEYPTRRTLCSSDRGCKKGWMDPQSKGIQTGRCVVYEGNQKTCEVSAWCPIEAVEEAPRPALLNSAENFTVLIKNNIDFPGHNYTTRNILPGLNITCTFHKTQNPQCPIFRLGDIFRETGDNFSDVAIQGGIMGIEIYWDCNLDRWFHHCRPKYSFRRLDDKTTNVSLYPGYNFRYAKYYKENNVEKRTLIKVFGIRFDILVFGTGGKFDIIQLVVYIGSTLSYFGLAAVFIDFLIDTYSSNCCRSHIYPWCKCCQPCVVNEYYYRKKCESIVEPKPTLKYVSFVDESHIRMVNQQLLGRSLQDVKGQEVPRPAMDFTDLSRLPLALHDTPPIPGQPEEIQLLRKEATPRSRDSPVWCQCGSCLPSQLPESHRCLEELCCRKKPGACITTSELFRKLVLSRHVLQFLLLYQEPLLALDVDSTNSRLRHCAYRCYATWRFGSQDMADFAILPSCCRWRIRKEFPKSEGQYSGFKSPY
In short: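 100,000 cells/well, plated day -1. Dye 1 h → rinse → compound 1 h, RT → FLIPR^TETRA Ca2+ mobilization. Max RFU minus mean negative control (no agonist); mean agonist-well max as positive control.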

| SMILES | IC50 |
| --- | --- |
| O=C(NCC12CC3CC(CC(C3)C1)C2)c1cccc2nc(CNCCN3CCOCC3)cn12 [Compound 125, N-(adamantan-1-ylmethyl)-2-{[(2-morpholin-4-ylethyl)amino]methyl}imi-dazo[1,2-a]pyridine-5-carboxamide] | < 2 µM |
| COCCN(C)Cc1cn2c(C(=O)NCC34CC5CC(CC(C5)C3)C4)cccc2n1 [Compound 133, N-(adamantan-1-ylmethyl)-2-{[(2-methoxyethyl)(meth-yl)amino]methyl}imi-dazo[1,2-a]pyridine-5-carboxamide] | < 2 µM |
| CCCN(CCC)C(=O)c1cn2c(C(=O)NC[C@@H]3CC[C@H]4C[C@@H]3C4(C)C)cccc2n1 [Compound 476, 5-N-{[(1S,2R,5S)-6,6-dimethylbicyclo[3.1.1]hept-2-yl]methyl}-2-N,2-N-dipropylimidazo[1,2-a]pyridine-2,5-dicarboxamide] | < 2 µM |

same assay, conditions: 50% decrease in the fluorescence response of cells exposed to 80 μM 2′(3′)-O-(4-benzoyl-benzoyl)adenosine 5′-triphosphate; Example 4A; read-out: IC50

| SMILES | IC50 |
| --- | --- |
| CC1(C)[C@@H]2CC[C@@H](CNC(=O)c3cccc4nc(CC(=O)N5CCCNCC5)cn34)[C@H]1C2 [Compound 560, 2-[2-(1,4-diazepan-1-yl)-2-oxoethyl]-N-{[(1R,2R,5R)-6,6-dimethylbicyclo[3.1.1]hept-2-yl]methyl}imidazo[1,2-a]pyridine-5-carboxamide] | < 2 µM |
| CC(C)(CO)NC(=O)c1cn2c(NC(=O)CC34CC5CC(CC(C5)C3)C4)cccc2n1 [Compound 437, 5-[(adamantan-1-ylacetyl)amino]-N-(2-hydroxy-1,1-dimethylethyl)imidazo [1,2-a]pyridine-2-carboxamide] | < 2 µM |
| C[C@H]1CN(C(=O)Cc2cn3c(C(=O)NC[C@@H]4CC[C@@H]5C[C@H]4C5(C)C)cccc3n2)CCN1 [Compound 563, N-{[(1R,2R,5R)-6,6-dimethylbicyclo[3.1.1]hept-2-yl]methyl}-2-{2-[(3S)-3-methylpiperazin-1-yl]-2-oxoethyl}imidazo[1,2-a]pyridine-5-carboxamide] | < 2 µM |
| CNC1CCN(C(=O)Cc2cn3c(C(=O)NC[C@@H]4CC[C@@H]5C[C@H]4C5(C)C)cccc3n2)C1 (stereo partly drawn) [Compound 568, N-{[(1R,2R,5R)-6,6-dimethylbicyclo[3.1.1]hept-2-yl]methyl}-2-{2-[3-(methylamino)pyrrolidin-1-yl]-2-oxoethyl}imidazo[1,2-a]pyridine-5-carboxamide] | < 2 µM |
| O=C(CC12CC3CC(CC(C3)C1)C2)Nc1cccc2nc(C(=O)N3CCC(O)CC3)cn12 [Compound 426, 2-adamantan-1-yl-N-{2-[(4-hydroxypiperidin-1-yl)carbonyl]imidazo [1,2-a]pyridin-5-yl}acetamide] | < 2 µM |

same assay, conditions: 50% decrease in the fluorescence response of cells exposed to 80 μM of 2′(3′)-O-(4-benzoyl-benzoyl)adenosine 5′-triphosphate; Example 4A; read-out: IC50

| SMILES | IC50 |
| --- | --- |
| CCc1ccc(CN(C)C(=O)c2cn3c(C(=O)NCC45CC6CC(CC(C6)C4)C5)cccc3n2)cn1 [Compound 712, 5-N-(adamantan-1-ylmethyl)-2-N-[(6-ethylpyridin-3-yl)methyl]-2-N-methylimidazo[1,2-a]pyridine-2,5-dicarboxamide] | < 2 µM |
| N[C@@H]1CCN(Cc2cn3c(C(=O)NCC4(c5cccnc5)CCCCC4)cccc3n2)C1 [Compound 769, 2-[(3-aminopyrrolidin-1-yl)methyl]-N-[(1-pyridin-3-ylcyclohexyl)methyl] imidazo[1,2-a] pyridine-5-carboxamide] | < 2 µM |
| O=C(O)c1nnnn1Cc1cn2c(C(=O)NCC34CC5CC(CC(C5)C3)C4)cccc2n1 [Compound 737, 1-({5-[(adamantan-1-ylmethyl)carbamoyl]imidazo[1,2-a]pyridin-2-yl}methyl)-1H-tetrazole-5-carboxylic acid] | < 2 µM |

same assay, conditions: 50% decrease in the fluorescence response of cells exposed to 80 μM of 2′(3′)-O-(4-benzoyl-benzoyl)adenosine 5′-triphosphate; determined as in Example 4A; read-out: IC50

| SMILES | IC50 |
| --- | --- |
| CC(C)(C)[Si](C)(C)OCCCn1ccc(NCc2cn3c(C(=O)NCC45CC6CC(CC(C6)C4)C5)cccc3n2)n1 [Compound 999, N-(adamantan-1-ylmethyl)-2-({[1-(3-{[tert-butyl (dimethyl)silyl]oxy}propyl)-1H-pyrazol-3-yl]amino}methyl) imidazo[1,2-a] pyridine-5-carboxamide] | < 2 µM |
| CCOC(=O)C(Cc1ccc(Cl)cc1)c1cn2c(C(=O)NCC3(c4ccc(Cl)cc4)CCCCC3)cccc2n1 (stereo not drawn) [Compound 934, ethyl 3-(4-chlorophenyl)-2-[5-({[1-(4-chlorophenyl)cyclohexyl]methyl}carbamoyl)imidazo[1,2-a]pyridin-2-yl]propanoate] | < 2 µM |
| CC(C)N1CCN(C(=O)Cc2cn3c(C(=O)NCC4(c5ccc(C(F)(F)F)cc5)CCCCC4)cccc3n2)CC1 [Compound 885, 2-[2-(4-isopropylpiperazin-1-yl)-2-oxoethyl]-N-({1-[4-(trifluoromethyl)phenyl]cyclohexyl}methyl) imidazo[1,2-a] pyridine-5-carboxamide] | < 2 µM |
| CC(C)CCC(C(=O)O)c1cn2c(C(=O)NCC34CC5CC(CC(C5)C3)C4)cccc2n1 (stereo not drawn) [Compound 912, 2-{5-[(adamantan-1-ylmethyl)carbamoyl]imidazo[1,2-a]pyridin-2-yl}-5-methylhexanoic acid] | < 2 µM |

same assay, conditions: P2X7 calcium mobilization, Example 4A; 50% decrease in the fluorescence response of cells exposed to 80 μM of (2′(3′)-O-(4-benzoyl-benzoyl)adenosine 5′-triphosephate); read-out: IC50

| SMILES | IC50 |
| --- | --- |
| CCOC(=O)Cc1cn2cc(C(=O)NCC34CC5CC(CC(C5)C3)C4)ccc2n1 [Compound 1063, ethyl {6-[(adamantan-1-ylmethyl)carbamoyl]imidazo[1,2-a]pyridin-2-yl} acetate] | < 2 µM |
| O=C(NCC(c1ccc(C(F)(F)F)nc1)N1CCCCC1)c1cccc2ncc(Cl)n12 (stereo not drawn) [Compound 1058, 3-chloro-N-{2-piperidin-1-yl-2-[6-(trifluoromethyl)pyridin-3-yl]ethyl}imidazo[1,2-a]pyridine-5-carboxamide] | < 2 µM |

same assay, conditions: SH-SY5Y cells; 50% decrease in fluorescence response to 80 μM BzATP; read-out: IC50

| SMILES | IC50 |
| --- | --- |
| CN(C)C1CCN(C(=O)c2cn3c(C(=O)NCC45CC6CC(CC(C6)C4)C5)cccc3n2)C1 (stereo not drawn) [Compound 93, N-(adamantan-1-ylmethyl)-2-{[3-(dimethyl-amino)pyrrolidin-1-yl]carbonyl}imidazo[1,2-a]pyridine-5-carboxamide] | < 2 µM |
| CC1(O)CCN(C(=O)c2cn3c(C(=O)NCC45CC6CC(CC(C6)C4)C5)cccc3n2)C1 (stereo not drawn) [Compound 112, N-(adamantan-1-ylmethyl)-2-[(3-hydroxy-3-methylpyrrolidin-1-yl)carbonyl]imidazo[1,2-a]pyridine-5-carboxamide] | < 2 µM |
| O=C(NCC12CC3CC(CC(C3)C1)C2)c1cccc2nc(Cn3cnc(CO)c3)cn12 [Compound 199, N-(adamantan-1-ylmethyl)-2-{[4-(hydroxymethyl)-1H-imidazol-1-yl]methyl}imidazo[1,2-a]pyridine-5-carboxamide] | < 2 µM |

same assay, conditions: fluorescence response of cells exposed to 80 μM 2′(3′)-O-(4-benzoyl-benzoyl)adenosine 5′-triphosphate; Example 4A; read-out: IC50

| SMILES | IC50 |
| --- | --- |
| CCCN(CCC)C(=O)c1cn2c(NC(=O)CC34CC5CC(CC(C5)C3)C4)cccc2n1 [Compound 374, 5-[(adamantan-1-ylacetyl)amino]-N,N-dipropylimidazo[1,2-a]pyridine-2-carboxamide] | < 2 µM |
| CN(CC1OCCO1)C(=O)c1cn2c(NC(=O)CC34CC5CC(CC(C5)C3)C4)cccc2n1 [Compound 368, 5-[(adamantan-l-ylacetyl)amino]-N-(1,3-dioxolan-2-ylmethyl)-N-methylimidazo[1,2-a]pyridine-2-carboxamide] | < 2 µM |
| CCCCN(C)C(=O)c1cn2c(NC(=O)CC34CC5CC(CC(C5)C3)C4)cccc2n1 [Compound 360, 5-[(adamantan-1-ylacetyl)amino]-N-butyl-N-methylimidazo[1,2-a]pyridine-2-carboxamide] | < 2 µM |
| O=C(O)CS(=O)(=O)Cc1cn2c(C(=O)NCC34CC5CC(CC(C5)C3)C4)cccc2n1 [Compound 289, [({5-[(adamantan-1-ylmethyl)carbamoyl]imidazo[1,2-a]pyridin-2-yl}methyl)sulfonyl] acetic acid] | < 2 µM |
